For the assay, the target named is human TRPM8 (Homo sapiens (Human), UniProt Q7Z2W7). Briefly: HTS cellular-based calcium assay for human TRPM8 antagonists (FLIPR TETRA). Particulars: HEK293/hTRPM8 cells, agonist Cooling Agent 10 at EC80, Ca2+ fluorescence.

SMILES strings stand for the structures.

Chain of human TRPM8 (Q7Z2W7 whole entry): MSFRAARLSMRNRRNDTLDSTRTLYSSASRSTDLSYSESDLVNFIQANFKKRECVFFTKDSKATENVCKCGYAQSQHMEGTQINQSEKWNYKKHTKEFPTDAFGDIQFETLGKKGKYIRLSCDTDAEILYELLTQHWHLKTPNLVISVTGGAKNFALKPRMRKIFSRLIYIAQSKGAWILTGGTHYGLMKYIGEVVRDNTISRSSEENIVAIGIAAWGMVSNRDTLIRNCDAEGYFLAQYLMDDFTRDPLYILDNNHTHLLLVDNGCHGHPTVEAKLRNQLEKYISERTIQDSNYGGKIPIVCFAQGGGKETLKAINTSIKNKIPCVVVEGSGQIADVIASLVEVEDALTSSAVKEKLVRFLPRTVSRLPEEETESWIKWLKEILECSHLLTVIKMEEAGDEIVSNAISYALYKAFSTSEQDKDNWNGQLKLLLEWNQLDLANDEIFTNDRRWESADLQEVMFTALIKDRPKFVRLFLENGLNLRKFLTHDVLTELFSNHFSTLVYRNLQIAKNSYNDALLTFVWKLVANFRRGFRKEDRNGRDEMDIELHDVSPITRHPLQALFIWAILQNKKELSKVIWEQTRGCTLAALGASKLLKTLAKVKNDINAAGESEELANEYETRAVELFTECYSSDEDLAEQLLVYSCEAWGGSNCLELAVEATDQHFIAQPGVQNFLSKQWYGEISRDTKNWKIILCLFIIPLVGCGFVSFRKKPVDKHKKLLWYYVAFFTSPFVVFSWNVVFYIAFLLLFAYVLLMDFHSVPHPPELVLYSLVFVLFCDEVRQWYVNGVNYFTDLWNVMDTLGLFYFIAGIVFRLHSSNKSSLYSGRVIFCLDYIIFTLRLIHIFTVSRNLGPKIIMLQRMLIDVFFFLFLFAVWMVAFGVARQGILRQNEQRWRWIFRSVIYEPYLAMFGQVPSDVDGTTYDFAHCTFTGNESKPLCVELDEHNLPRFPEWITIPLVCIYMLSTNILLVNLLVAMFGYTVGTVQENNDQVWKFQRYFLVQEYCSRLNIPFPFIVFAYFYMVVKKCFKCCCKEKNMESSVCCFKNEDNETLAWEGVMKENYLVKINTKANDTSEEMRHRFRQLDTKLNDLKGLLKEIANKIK

As usually defined, the IC50 is the point on the concentration scale where inhibition reaches its midpoint. As to `CCC(=O)c1sc(-c2cccs2)nc1O` [Compound 7, 1-[4-hydroxy-2-(thiophen-2-yl)-1,3-thiazol-5-yl]propan-1-one], the 50% inhibitory concentration (IC50) turned out to be 596 nM.

With `CON(C)C(=O)c1sc(-c2ccccc2Br)nc1O` [Compound 10, 2-(2-bromophenyl)-4-hydroxy-N-methoxy-N-methyl-1,3-thiazole-5-carboxamide], the IC50 came to 435 nM. Under `CON(C)C(=O)c1sc(-c2ccccc2C)nc1O` [Compound 8, 4-hydroxy-N-methoxy-N-methyl-2-(2-methylphenyl)-1,3-thiazole-5-carboxamide] stands 86 nM; under `CON(C)C(=O)c1sc(-c2cccs2)nc1O` [Compound 6, 4-hydroxy-N-methoxy-N-methyl-2-(thiophen-2-yl)-1,3-thiazole-5-carboxamide], 156 nM; under `CCC(=O)c1sc(-c2cccc(C)c2)nc1O` [Compound 30, 1-[4-hydroxy-2-(3-methylphenyl)-1,3-thiazol-5-yl]propan-1-one], 231 nM. Consider `CCC(=O)c1sc(-c2ccc(N)cc2)nc1O` [Compound 33, 1-[2-(4-aminophenyl)-4-hydroxy-1,3-thiazol-5-yl]propan-1-one], for which the concentration for half-maximal inhibition (IC50) worked out at 632 nM. For the compound `CCC(=O)c1sc(-c2ccc(NC)cc2)nc1O` [Compound 35, 1-{4-hydroxy-2-[4-(methylamino)phenyl]-1,3-thiazol-5-yl}propan-1-one], the IC50 was 789 nM. Regarding `CCC(=O)c1sc(-c2ccccc2Br)nc1O` [Compound 11, 1-[2-(2-bromophenyl)-4-hydroxy-1,3-thiazol-5-yl]propan-1-one], the IC50 is 912 nM. For `CON(C)C(=S)c1sc(-c2cccc(F)c2)nc1O` [Compound 41, 2-(3-fluorophenyl)-4-hydroxy-N-methoxy-N-methyl-1,3-thiazole-5-carbothioamide], the IC50 was found to be 388 nM. As to `CCC(=O)c1sc(-c2ccco2)nc1O` [Compound 15, 1-[2-(furan-2-yl)-4-hydroxy-1,3-thiazol-5-yl]propan-1-one], the IC50 is 236 nM. As for `CCC(=O)c1sc(-c2ccc[nH]2)nc1O` [Compound 16, 1-[4-hydroxy-2-(1H-pyrrol-2-yl)-1,3-thiazol-5-yl]propan-1-one], the 50% inhibitory concentration (IC50) was 123 nM. In the case of `CCC(=O)c1sc(-c2cccnc2)nc1O` [Compound 25, 1-[4-hydroxy-2-(pyridin-3-yl)-1,3-thiazol-5-yl]propan-1-one], the half-maximal inhibitory concentration (IC50) came out at 356 nM. Under `CC(=O)c1sc(-c2cccc(F)c2)nc1O` [Compound 4, 1-(2-(3-fluorophenyl)-4-hydroxythiazol-5-yl)ethanone] stands 958 nM; under `CCC(=O)c1sc(-c2cccc(F)c2)nc1O` [Compound 1, 1-[2-(3-fluorophenyl)-4-hydroxy-1,3-thiazol-5-yl]propan-1-one], 32 nM; under `CCC(=O)c1sc(-c2cnc[nH]2)nc1O` [Compound 19, 1-[4-hydroxy-2-(1H-imidazol-5-yl)-1,3-thiazol-5-yl]propan-1-one], 302 nM. Turning to `CCC(=O)c1sc(-c2ccc(O)cc2)nc1O` [Compound 29, 1-[4-hydroxy-2-(4-hydroxyphenyl)-1,3-thiazol-5-yl]propan-1-one], the half-maximal inhibitory concentration (IC50) is 326 nM. As to `CC(C)CC(=O)c1sc(-c2cccs2)nc1O` [Compound 22, 1-[4-hydroxy-2-(thiophen-2-yl)-1,3-thiazol-5-yl]-3-methylbutan-1-one], the concentration for half-maximal inhibition (IC50) stood at 85 nM.

As to `CC/C(=N\OC)c1sc(-c2cccc(F)c2)nc1O` [Compound 42, 2-(3-fluorophenyl)-5-[(1E)—N-methoxypropanimidoyl]-1,3-thiazol-4-ol], the IC50 stood at 986 nM. In the case of `CCC(=O)c1sc(-c2ccccc2O)nc1O` [Compound 13, 1-[2-(2-hydroxyphenyl)-4-hydroxy-1,3-thiazol-5-yl]propan-1-one], the IC50 was determined as 112 nM. Turning to `CCC(=N)c1sc(-c2cccc(F)c2)nc1O` [Compound 43, 2-(3-fluorophenyl)-5-propanimidoyl-1,3-thiazol-4-ol], the IC50 was 1210 nM. On to `CCC(=O)c1sc(-c2cccc(O)c2)nc1O` [Compound 28, 1-[4-hydroxy-2-(3-hydroxyphenyl)-1,3-thiazol-5-yl]propan-1-one], for which the IC50 was determined as 23 nM. For the compound `CCC(=S)c1sc(-c2cccc(F)c2)nc1O` [Compound 40, 1-[2-(3-fluorophenyl)-4-hydroxy-1,3-thiazol-5-yl]propane-1-thione], the IC50 was found to be 236 nM. With `CC(C)C(=O)c1sc(-c2cccc(F)c2)nc1O` [Compound 5, 1-[2-(3-fluorophenyl)-4-hydroxy-1,3-thiazol-5-yl]-2-methylpropan-1-one], the concentration for half-maximal inhibition (IC50) turned out to be 299 nM. On to `COCC(=O)c1sc(-c2cccc(F)c2)nc1O` [Compound 39, 1-[2-(3-fluorophenyl)-4-hydroxy-1,3-thiazol-5-yl]-2-methoxyethanone], for which the half-maximal inhibitory concentration (IC50) is 523 nM. Take `CCC(=O)c1sc(-c2ccccn2)nc1O` [Compound 27, 1-[4-hydroxy-2-(pyridin-2-yl)-1,3-thiazol-5-yl]propan-1-one]: the IC50 worked out at 145 nM. As to `CCC(=O)c1sc(-c2cccc(Br)c2)nc1O` [Compound 14, 1-[2-(3-bromophenyl)-4-hydroxy-1,3-thiazol-5-yl]propan-1-one], the half-maximal inhibitory concentration (IC50) amounted to 1730 nM. Consider `CCC(=O)c1sc(-c2ncon2)nc1O` [Compound 23, 1-[4-hydroxy-2-(1,2,4-oxadiazol-3-yl)-1,3-thiazol-5-yl]propan-1-one], for which the concentration for half-maximal inhibition (IC50) was determined as 99 nM. `CCC(=O)c1sc(-c2cccn2C)nc1O` [Compound 17, 1-[4-hydroxy-2-(1-methyl-1H-pyrrol-2-yl)-1,3-thiazol-5-yl]propan-1-one]: the half-inhibitory concentration (IC50) came out at 323 nM. Next, `CC/C(=N\O)c1sc(-c2cccc(F)c2)nc1O` [Compound 44, 2-(3-fluorophenyl)-5-[(1E)—N-hydroxypropanimidoyl]-1,3-thiazol-4-ol]: 1360 nM; `CCCC(=O)c1sc(-c2cccs2)nc1O` [Compound 21, 1-[4-hydroxy-2-(thiophen-2-yl)-1,3-thiazol-5-yl]butan-1-one]: 64 nM. With `CCC(=O)c1sc(-c2ccc(C)cc2)nc1O` [Compound 31, 1-[4-hydroxy-2-(4-methylphenyl)-1,3-thiazol-5-yl]propan-1-one], the IC50 was 236 nM. Take `CCC(=O)c1sc(-c2cnn(C)c2)nc1O` [Compound 20, 1-[4-hydroxy-2-(1-methyl-1H-pyrazol-4-yl)-1,3-thiazol-5-yl]propan-1-one]: the IC50 worked out at 89 nM. As for `CC(C)CC(=O)c1sc(-c2cccc(F)c2)nc1O` [Compound 38, 1-[2-(3-fluorophenyl)-4-hydroxy-1,3-thiazol-5-yl]-3-methylbutan-1-one], the IC50 amounted to 331 nM. Take `CCC(=O)c1sc(-c2cccc(N)c2)nc1O` [Compound 32, 1-[2-(3-aminophenyl)-4-hydroxy-1,3-thiazol-5-yl]propan-1-one]: the half-inhibitory concentration (IC50) is 450 nM. Take `CCC(=O)c1sc(-c2ccno2)nc1O` [Compound 24, 1-[4-hydroxy-2-(1,2-oxazol-5-yl)-1,3-thiazol-5-yl]propan-1-one]: the IC50 is 123 nM. As to `CCC(=O)c1sc(-c2ccncc2)nc1O` [Compound 26, 1-[4-hydroxy-2-(pyridin-4-yl)-1,3-thiazol-5-yl]propan-1-one], the IC50 was 453 nM. On to `CCC(=O)c1sc(-c2ccc(F)cc2)nc1O` [Compound 36, 1-[2-(4-fluorophenyl)-4-hydroxy-1,3-thiazol-5-yl]propan-1-one], for which the IC50 stood at 50 nM. With `CCC(=O)c1sc(-c2cccc(NC)c2)nc1O` [Compound 34, 1-{4-hydroxy-2-[3-(methylamino)phenyl]-1,3-thiazol-5-yl}propan-1-one], the IC50 is 233 nM. Under `O=C(c1sc(-c2cccc(F)c2)nc1O)C1CC1` [Compound 45, cyclopropyl[2-(3-fluorophenyl)-4-hydroxy-1,3-thiazol-5-yl]methanone] stands 287 nM. On to `CCC(=O)c1sc(-c2cncn2C)nc1O` [Compound 18, 1-[4-hydroxy-2-(1-methyl-1H-imidazol-5-yl)-1,3-thiazol-5-yl]propan-1-one], for which the half-inhibitory concentration (IC50) is 112 nM.

As for `CCC(=O)c1sc(-c2ccccc2C)nc1O` [Compound 9, 1-[4-hydroxy-2-(2-methylphenyl)-1,3-thiazol-5-yl]propan-1-one], the IC50 came out at 411 nM.

For the origin of these results see patent US11046662B2, “2-aryl-4-hydroxy-1,3-thiazole derivatives useful as TRPM8-inhibitors in treatment of neuralgia, pain, COPD and asthma” (DOMPÉ FARMACEUTICI S.P.A., priority 2014, dated 2021).
